Experiment [1] has as its target mitochondrial RNA-polymerase (POLRMT) (Mus musculus, UniProt Q8BKF1). As to the kind of experiment: Homogeneous TR-FRET assay for mitochondrial transcription activity. The format is biochemical. To be noted: homogeneous TR-FRET assay according to Example 4; activity class. The method, boiled down:
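TR-FRET read-out (340 nm excitation, 665 nm emission) of a 407 bp transcript captured by Eu-streptavidin/biotin donor and ATTO647N acceptor DNA probes after EDTA stop. Transcription ran 2 h at RT with 500 μM […], mouse POLRMT/TFAM/TFB2M and LSP-plasmid template, after 10 min compound preincubation (10 μM or dilution series).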

Experiment [2] deals with mitochondrial transcription (7S RNA) in HeLa cells. Nature of the experiment: Quantitative real time-PCR assay of inhibition of mitochondrial transcription (cellular qPCR assay IMT). The format is cell-based. Particulars: Homo sapiens, 4 h compound incubation, qRT-PCR according to Example 5, activity class. As to the method:
Quantitative real-time PCR (qRT-PCR), based on the TagMan™ (Thermo Fisher Scientific, Waltham Mass.) technology, was carried out essentially as described in (Heid et al., 1996). HeLa cells were plated one day before compound treatment in RPMI medium supplemented with 10% Fetal Calf Serum and 2 mM L-glutamine. Cells were incubated with dilution series of compounds or vehicle (DMSO) for 4 h, prior to harvest and extraction of the RNA using the RNeasy Mini Kit (Qiagen, Hilden D), according to the manufacturer's instructions. RNA concentrations were measured spectroscopically, using a NanoDrop-2000 (Thermo Fisher Scientific, Waltham Mass.) and normalized prior to cDNA synthesis, using a ‘High-Capacity cDNA Reverse Transcription Kit’ (Thermo Fisher Scientific, Waltham Mass.). qRT-PCR was carried out using the ‘TaqMan Fast Advance Master Mix’ (Thermo Fisher Scientific, Waltham Mass.) on a 7500 Fast Real-Time PCR machine (Applied Biosystems, Foster City Calif.)
For these measurements, three genes were used to compare the effect of the scrutinized compounds in relation to their concentration. The POLRMT-gene was used to detect potential influences on nuclear transcription. Mitochondrial transcription in vivo was monitored by measurements 7S RNA. The TBP (TATA-box binding protein) gene was employed as the control (housekeeping gene) during qRT-PCR. The short-lived mitochondrial 7S RNA, which is not post-transcriptionally stabilized, allowed us to monitor rapid changes in mitochondrial transcription activity following compound addition. Biological triplicates were analyzed using the comparative CT Method (ΔΔCt) method (Bubner and Baldwin, 2004) and reported as Rq % values (Rq=Relative quantification=2-ΔΔCt).

Structures are written as SMILES.

Sequence of mitochondrial RNA-polymerase (POLRMT) (Q8BKF1 42-1207): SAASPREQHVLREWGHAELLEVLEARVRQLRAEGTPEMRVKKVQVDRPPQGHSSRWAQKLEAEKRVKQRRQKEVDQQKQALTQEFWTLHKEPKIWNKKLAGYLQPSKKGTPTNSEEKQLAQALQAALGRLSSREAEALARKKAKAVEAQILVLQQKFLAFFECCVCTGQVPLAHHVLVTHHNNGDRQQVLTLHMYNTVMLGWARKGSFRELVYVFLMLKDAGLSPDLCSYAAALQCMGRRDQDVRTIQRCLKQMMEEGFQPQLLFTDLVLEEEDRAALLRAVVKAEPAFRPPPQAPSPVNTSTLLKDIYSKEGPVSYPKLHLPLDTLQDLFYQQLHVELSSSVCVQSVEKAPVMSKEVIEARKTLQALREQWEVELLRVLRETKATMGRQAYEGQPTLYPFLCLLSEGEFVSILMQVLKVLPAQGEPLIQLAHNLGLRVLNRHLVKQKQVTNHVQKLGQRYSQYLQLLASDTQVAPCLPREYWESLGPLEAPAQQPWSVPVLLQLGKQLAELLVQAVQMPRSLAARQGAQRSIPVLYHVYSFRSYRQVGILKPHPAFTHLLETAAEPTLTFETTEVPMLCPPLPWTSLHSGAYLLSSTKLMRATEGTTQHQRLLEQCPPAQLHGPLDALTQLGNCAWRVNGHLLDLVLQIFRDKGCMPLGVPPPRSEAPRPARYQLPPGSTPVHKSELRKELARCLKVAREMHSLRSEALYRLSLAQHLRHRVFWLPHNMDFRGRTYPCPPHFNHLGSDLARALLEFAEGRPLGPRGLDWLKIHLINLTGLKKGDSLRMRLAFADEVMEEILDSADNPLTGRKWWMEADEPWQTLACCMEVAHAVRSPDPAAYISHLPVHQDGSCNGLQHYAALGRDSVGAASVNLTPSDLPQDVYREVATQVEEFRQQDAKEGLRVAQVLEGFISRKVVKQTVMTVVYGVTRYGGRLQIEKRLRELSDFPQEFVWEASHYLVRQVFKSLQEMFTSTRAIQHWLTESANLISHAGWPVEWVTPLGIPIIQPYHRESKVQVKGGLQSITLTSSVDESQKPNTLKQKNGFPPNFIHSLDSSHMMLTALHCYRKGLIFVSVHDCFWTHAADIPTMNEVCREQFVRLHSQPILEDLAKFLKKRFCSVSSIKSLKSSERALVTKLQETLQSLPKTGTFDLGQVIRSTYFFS

Consider `Cc1ccccc1-c1cc(=O)oc2cc(OC(C)C(=O)NC3CC3)ccc12` (centres unmarked) [Compound 25, N-cyclopropyl-2-[4-(o-tolyl)-2-oxo-chromen-7-yl]oxy-propanamide], for which the IC50 in experiment [1] was under 20 nM; in experiment [2] it was under 10 nM.
On to `CC(Oc1ccc2c(-c3ccccc3Cl)cc(=O)oc2c1)C(=O)NC1CC1` (centres unmarked) [Compound 26, 2-[4-(2-chlorophenyl)-2-oxo-chromen-7-yl]oxy-N-cyclopropyl-propanamide], for which the IC50 in experiment [1] was under 20 nM; in experiment [2], under 10 nM.
On to `Cc1ccccc1-c1cc(=O)oc2cc(O[C@H](C)C(=O)N3CCC[C@H](C(=O)O)C3)ccc12` [Compound 27, (3S)-1-[(2R)-2-[4-(o-tolyl)-2-oxo-chromen-7-yl]oxypropanoyl]piperidine-3-carboxylic acid], for which the half-maximal inhibitory concentration (IC50) in experiment [1] is under 20 nM; in experiment [2], under 10 nM.
The matching figures for `CC(Oc1ccc2c(-c3ccccc3Cl)cc(=O)oc2c1)C(=O)N1CCC[C@H](C(=O)O)C1` (stereo partly drawn) [Compound 33, (3S)-1-[2-[4-(2-chlorophenyl)-2-oxo-chromen-7-yl]oxypropanoyl]piperidine-3-carboxylic acid]: under 20 nM and under 10 nM.
The matching figures for `Cc1ccccc1-c1cc(=O)oc2cc(O[C@H](C)C(=O)NC(C)C)ccc12` [Compound 36, (2R)-N-isopropyl-2-[4-(o-tolyl)-2-oxo-chromen-7-yl]oxy-propanamide]: under 20 nM and under 10 nM.
In the case of `CC(Oc1ccc2c(-c3ccc(F)cc3Cl)cc(=O)oc2c1)C(=O)N1CCCC(C)(C(=O)O)C1` (centres unmarked) [Compound 37, 1-[2-[4-(2-chloro-4-fluoro-phenyl)-2-oxo-chromen-7-yl]oxypropanoyl]-3-methyl-piperidine-3-carboxylic acid], the IC50 is under 20 nM in experiment [1] and under 10 nM in experiment [2].
The matching figures for `Cc1ccccc1-c1cc(=O)oc2cc(OC(C)C(=O)N3CCCC(c4nn[nH]n4)C3)ccc12` (centres unmarked) [Compound 42, 7-((1-(3-(2H-tetrazol-5-yl)piperidin-1-yl)-1-oxopropan-2-yl)oxy)-4-(o-tolyl)-2H-chromen-2-one]: under 20 nM and 10 to 50 nM.
Turning to `CC(Oc1ccc2c(-c3ccccc3Cl)cc(=O)oc2c1)C(=O)N1CCCC(C)(C(=O)O)C1` (centres unmarked) [Compound 54, 1-[2-[4-(2-chlorophenyl)-2-oxo-chromen-7-yl]oxypropanoyl]-3-methyl-piperidine-3-carboxylic acid], the half-inhibitory concentration (IC50) in experiment [1] was under 20 nM; in experiment [2], under 10 nM.
The matching figures for `CC(C)NC(=O)[C@@H](C)Oc1ccc2c(-c3ccccc3Cl)cc(=O)oc2c1` [Compound 56, (2R)-2-[4-(2-chlorophenyl)-2-oxo-chromen-7-yl]oxy-N-isopropyl-propanamide]: 20 to 100 nM and under 10 nM.
Regarding `CC(Oc1ccc2c(-c3ccccc3Cl)cc(=O)oc2c1)C(=O)N1CCC(CC(=O)O)CC1` (centres unmarked) [Compound 59, 2-[1-[2-[4-(2-chlorophenyl)-2-oxo-chromen-7-yl]oxypropanoyl]-4-piperidyl]acetic acid], the figures for the IC50 in experiment [1] and in experiment [2] were 20 to 100 nM and 10 to 50 nM, respectively.
Regarding `Cc1ccccc1-c1cc(=O)oc2cc(OC(C)C(=O)NC(C)C)ccc12` (centres unmarked) [Compound 62, N-isopropyl-2-[4-(o-tolyl)-2-oxo-chromen-7-yl]oxy-propanamide], the IC50 was 20 to 100 nM in experiment [1] and under 10 nM in experiment [2].
Take `CC(Oc1ccc2c(-c3ccccc3Cl)cc(=O)oc2c1)C(=O)N1CCCC(CC(=O)O)C1` (centres unmarked) [Compound 66, 2-[1-[2-[4-(2-chlorophenyl)-2-oxo-chromen-7-yl]oxypropanoyl]-3-piperidyl]acetic acid]: the IC50 is 20 to 100 nM in experiment [1] and under 10 nM in experiment [2].
The matching figures for `CC(Oc1ccc2c(-c3ccc(F)cc3Cl)cc(=O)oc2c1)C(=O)N1CCCC(S(N)(=O)=O)C1` (centres unmarked) [Compound 69, 1-[2-[4-(2-chloro-4-fluoro-phenyl)-2-oxo-chromen-7-yl]oxypropanoyl]piperidine-3-sulfonamide]: 20 to 100 nM and under 10 nM.
The matching figures for `CC(C)NC(=O)C(C)Oc1ccc2c(-c3ccccc3Cl)cc(=O)oc2c1` (centres unmarked) [Compound 70, 2-[4-(2-chlorophenyl)-2-oxo-chromen-7-yl]oxy-N-isopropyl-propanamide]: 20 to 100 nM and under 10 nM.
The matching figures for `Cc1ccccc1-c1cc(=O)oc2cc(OC(C)C(=O)N3CCC[C@@H](C(=O)N(C)C)C3)ccc12` (stereo partly drawn) [Compound 78, (3R)-N,N-dimethyl-1-[2-[4-(o-tolyl)-2-oxo-chromen-7-yl]oxypropanoyl]piperidine-3-carboxamide]: 20 to 100 nM and under 10 nM.
`CC(Oc1ccc2c(-c3ccccc3Cl)cc(=O)oc2c1)C(=O)N1CCCC(S(C)(=N)=O)C1` (centres unmarked) [Compound 79, 4-(2-chlorophenyl)-7-[1-methyl-2-[3-(methylsulfonimidoyl)-1-piperidyl]-2-oxo-ethoxy]chromen-2-one]: the results for the IC50 in experiment [1] and in experiment [2] were 20 to 100 nM and under 10 nM, respectively.
For `COC(=O)CC1CCN(C(=O)C(C)Oc2ccc3c(-c4ccccc4Cl)cc(=O)oc3c2)CC1` (centres unmarked) [Compound 80, methyl 2-[1-[2-[4-(2-chlorophenyl)-2-oxo-chromen-7-yl]oxypropanoyl]-4-piperidyl]acetate], the IC50 was 20 to 100 nM in experiment [1] and 50 to 500 nM in experiment [2].
Turning to `CCOC(=O)C(C)Oc1ccc2c(-c3ccccc3Br)cc(=O)oc2c1` (centres unmarked) [Compound 81, ethyl 2-[4-(2-bromophenyl)-2-oxo-chromen-7-yl]oxypropanoate], the IC50 lay within 20 to 100 nM in experiment [1] and 10 to 50 nM in experiment [2].
The matching figures for `Cc1ccccc1-c1cc(=O)oc2cc(OC(C)C(=O)N3CCC[C@H](C(=O)N(C)C)C3)ccc12` (stereo partly drawn) [Compound 84, (3S)-N,N-dimethyl-1-[2-[4-(o-tolyl)-2-oxo-chromen-7-yl]oxypropanoyl]piperidine-3-carboxamide]: 20 to 100 nM and 10 to 50 nM.
The matching figures for `CCNC(=O)C(C)Oc1ccc2c(-c3ccccc3C)cc(=O)oc2c1` (centres unmarked) [Compound 85, N-ethyl-2-[4-(o-tolyl)-2-oxo-chromen-7-yl]oxy-propanamide]: 20 to 100 nM and 10 to 50 nM.
The matching figures for `CCOC(=O)CC1CCCN(C(=O)C(C)Oc2ccc3c(-c4ccccc4Cl)cc(=O)oc3c2)C1` (centres unmarked) [Compound 86, ethyl 2-[1-[2-[4-(2-chlorophenyl)-2-oxo-chromen-7-yl]oxypropanoyl]-3-piperidyl]acetate]: 20 to 100 nM and 10 to 50 nM.
On to `CC(Oc1ccc2c(-c3ccccc3Br)cc(=O)oc2c1)C(=O)N(C)C` (centres unmarked) [Compound 89, 2-[4-(2-bromophenyl)-2-oxo-chromen-7-yl]oxy-N,N-dimethyl-propanamide], for which the IC50 was 20 to 100 nM in experiment [1] and under 10 nM in experiment [2].
The matching figures for `CCNC(=O)C(C)Oc1ccc2c(-c3ccc(F)cc3Cl)cc(=O)oc2c1` (centres unmarked) [Compound 91, 2-[4-(2-chloro-4-fluoro-phenyl)-2-oxo-chromen-7-yl]oxy-N-ethyl-propanamide]: 20 to 100 nM and under 10 nM.
In the case of `CC(C)OC(=O)C(C)Oc1ccc2c(-c3ccccc3Br)cc(=O)oc2c1` (centres unmarked) [Compound 92, isopropyl 2-[4-(2-bromophenyl)-2-oxo-chromen-7-yl]oxypropanoate], the IC50 in experiment [1] is 20 to 100 nM; in experiment [2] it was under 10 nM.
In the case of `CC(Oc1ccc2c(-c3ccccc3Cl)cc(=O)oc2c1)C(=O)N(C)C` (centres unmarked) [Compound 93, 2-[4-(2-chlorophenyl)-2-oxo-chromen-7-yl]oxy-N,N-dimethyl-propanamide], the IC50 in experiment [1] was 20 to 100 nM; in experiment [2], under 10 nM.
As for `CCNC(=O)C(C)Oc1ccc2c(-c3ccccc3Cl)cc(=O)oc2c1` (centres unmarked) [Compound 98, 2-[4-(2-chlorophenyl)-2-oxo-chromen-7-yl]oxy-N-ethyl-propanamide], the IC50 is 100 to 1000 nM in experiment [1] and under 10 nM in experiment [2].
`COC(=O)C[C@H]1CCCN(C(=O)[C@@H](C)Oc2ccc3c(-c4ccc(F)cc4Cl)cc(=O)oc3c2)C1` [Compound 104, methyl 2-[(3R)-1-[(2R)-2-[4-(2-chloro-4-fluoro-phenyl)-2-oxo-chromen-7-yl]oxypropanoyl]-3-piperidyl]acetate]: the values for the IC50 in experiment [1] and in experiment [2] were under 20 nM and 10 to 50 nM, respectively.
In the case of `COC(=O)C[C@@H]1CCCN(C(=O)[C@@H](C)Oc2ccc3c(-c4ccc(F)cc4Cl)cc(=O)oc3c2)C1` [Compound 105, methyl 2-[(3S)-1-[(2R)-2-[4-(2-chloro-4-fluoro-phenyl)-2-oxo-chromen-7-yl]oxypropanoyl]-3-piperidyl]acetate], the IC50 was 20 to 100 nM in experiment [1] and 10 to 50 nM in experiment [2].

(Values after patent US11111238B2, “Coumarin derivatives, processes for their preparation and uses thereof for the treatment of cancer” (Lead Discovery Center GmbH, priority 2017, dated 2021).)
